Experimental data taken from US20250221996A1, “HETEROCYCLIC COMPOUNDS, COMPOSITIONS THEREOF, AND METHODS OF TREATMENT THEREWITH” (BeiGene, Ltd., priority 2022, published 2025).

These compounds were tested on pERK1/2(THR202/TYR204) level in AsPC-1 cells (assay: pERK assay (HTRF) in AsPC-1 cell line). Conditions: Homo sapiens, ASPC1, 2 h, 2 h compound treatment.
Format: cell-based
Method: AsPC-1 cell line was used in this study. Cells were maintained in RPMI-1640 supplemented with 10% fetal bovine serum (Thermo Fisher), 50 units/mL penicillin and streptomycin (Thermo Fisher) and kept at 37° C. in a humidified atmosphere of 5% CO2 in air. Cells were reinstated from frozen stocks that were laid down within 30 passages from the original cells purchased. 30000 cells per well were seeded into a 96-well plate and incubated overnight. Cells were treated with a 10-point dilution series. The final compound concentration is from 0 to 10 μM. After 2 h compound treatment, cells were lysed, and the pERK1/2(THR202/TYR204) level in the cell lysates was detected by HTRF kit (Cisbio). In brief, a total of 16 μL of cell lysate from each well of a 96-well plate was transferred to a 384-well white assay plate. Lysate from each well was incubated with 2 μL of Eu3+-cryptate (donor) labeled anti-phospho-ERK1/2 and 2 μL of D2 (acceptor) labeled anti-phospho-ERK1/2 antibodies (Cisbio) overnight in dark at room temperature. When donor and acceptor are in close proximity, excitation of the donor with laser triggers a Fluorescence Resonance Energy Transfer (FRET) towards the acceptor, which in turn fluoresces at 655 nm wavelength. FRET signals were measured using a PHERAstar FSX reader (BMG Labtech). IC50 determination was performed by fitting the curve of percent inhibition versus the log of the inhibitor concentration using Dotmatics.

First: CC12CC(COc3nc(N4C5CNCC4COC5)c4cc(C(F)(F)F)c(-c5ccc(F)c6sc(N)c(C#N)c56)c(F)c4n3)(CO1)C2 [Example 16, 4-(4-(3-oxa-7,9-diazabicyclo[3.3.1]nonan-9-yl)-8-fluoro-2-((1-methyl-2-oxabicyclo[2.1.1]hexan-4-yl)methoxy)-6-(trifluoromethyl)quinazolin-7-yl)-2-amino-7-fluorobenzo[b]thiophene-3-carbonitrile]
Second: N#Cc1c(N)sc2c(F)ccc(-c3c(C(F)(F)F)cc4c(N5CC6CCC(C5)N6)nc(OCC56COC(CO)(C5)C6)nc4c3F)c12 [Example 21, 4-(4-(3,8-diazabicyclo[3.2.1]octan-3-yl)-8-fluoro-2-((1-(hydroxymethyl)-2-oxabicyclo[2.1.1]hexan-4-yl)methoxy)-6-(trifluoromethyl)quinazolin-7-yl)-2-amino-7-fluorobenzo[b]thiophene-3-carbonitrile]
The IC50 of the first is 5.3-fold lower: 143 nM for the first, 760 nM for the second. The first is the more potent here.

Compared with `CC1(CC#N)CN(c2nc(N3CC4CCC(C3)N4)c3cc(C(F)(F)F)c(-c4ccc(F)c5sc(N)c(C#N)c45)c(F)c3n2)C1` [Example 17], `CC1(COc2nc(N3CC4CCC(C3)N4)c3cc(C(F)(F)F)c(-c4ccc(F)c5sc(N)c(C#N)c45)c(F)c3n2)CN(S(C)(=O)=O)C1` [Example 38, 4-(4-(3,8-diazabicyclo[3.2.1]octan-3-yl)-8-fluoro-2-((3-methyl-1-(methylsulfonyl)azetidin-3-yl)methoxy)-6-(trifluoromethyl)quinazolin-7-yl)-2-amino-7-fluorobenzo[b]thiophene-3-carbonitrile] is 3.1-fold lower in IC50: 561 nM for the first, 180 nM for the second.

Compared with `CC1(COc2nc(N3CC4CCC(C3)N4)c3cc(C(F)(F)F)c(-c4ccc(F)c5sc(N)c(C#N)c45)c(F)c3n2)COC1` [Example 18, 4-(4 (3,8-diazabicyclo[3.2.1]octan-3-yl)-8-fluoro-2-((3-methyloxetan-3-yl)methoxy)-6-(trifluoromethyl)quinazolin-7-yl)-2-amino-7-fluorobenzo [b]thiophene-3-carbonitrile], `COC1(COc2nc(N3CC4CCC(C3)N4)c3cc(C(F)(F)F)c(-c4ccc(F)c5sc(N)c(C#N)c45)c(F)c3n2)COC1` [Example 28, 4-(4-(3,8-diazabicyclo[3.2.1]octan-3-yl)-8-fluoro-2-((3-methoxyoxetan-3-yl)methoxy)-6-(trifluoromethyl)quinazolin-7-yl)-2-amino-7-fluorobenzo[b]thiophene-3-carbonitrile] is 1.9-fold lower in IC50: 146 nM for the first, 78 nM for the second. The second is the more potent here.

`N#Cc1c(N)sc2c(F)ccc(-c3c(C(F)(F)F)cc4c(N5CC6CCC(C5)N6)nc(OCC5(O)CCOCC5)nc4c3F)c12` [Example 19, 4-(4-(3,8-diazabicyclo[3.2.1]octan-3-yl)-8-fluoro-2-((4-hydroxytetrahydro-2H-pyran-4-yl)methoxy)-6-(trifluoromethyl)quinazolin-7-yl)-2-amino-7-fluorobenzo[b]thiophene-3-carbonitrile] and `N#CCC1(COc2nc(N3CC4CCC(C3)N4)c3cc(C(F)(F)F)c(-c4ccc(F)c5sc(N)c(C#N)c45)c(F)c3n2)CCOCC1` [Example 35, 4-(4-(3,8-diazabicyclo[3.2.1]octan-3-yl)-2-((4-(cyanomethyl)tetra hydro-2H-pyran-4-yl)methoxy)-8-fluoro-6-(trifluoromethyl)quinazolin-7-yl)-2-amino-7-fluorobenzo[b]thiophene-3-carbonitrile] are within 1.5-fold of each other in IC50: 326 nM for the first, 275 nM for the second.

`COC(=O)N1CC(COc2nc(N3CC4CCC(C3)N4)c3cc(C(F)(F)F)c(-c4ccc(F)c5sc(N)c(C#N)c45)c(F)c3n2)(OC)C1` [Example 20, methyl 3-(((7-(2-amino-3-cyano-7-fluorobenzo[b]thiophen-4-yl)-4-(3,8-diazabicyclo[3.2.1]octan-3-yl)-8-fluoro-6-(trifluoromethyl)quinazolin-2-yl)oxy)methyl)-3-methoxyazetidine-1-carboxylate] and `CC(=O)N1CC(F)(COc2nc(N3CC4CCC(C3)N4)c3cc(C(F)(F)F)c(-c4ccc(F)c5sc(N)c(C#N)c45)c(F)c3n2)C1` [Example 36, 4-(2-((1-acetyl-3-fluoroazetidin-3-yl)methoxy)-4-(−3,8-diazabicyclo[3.2.1]octan-3-yl)-8-fluoro-6-(trifluoromethyl)quinazolin-7-yl)-2-amino-7-fluorobenzo[b]thiophene-3-carbonitrile] are within 1.5-fold of each other in IC50: 188 nM for the first, 250 nM for the second.

First: N#Cc1c(N)sc2c(F)ccc(-c3c(C(F)(F)F)cc4c(N5CC6CCC(C5)N6)nc(OCC5CCOCC5)nc4c3F)c12 [Example 23, 4-(4-(3,8-diazabicyclo[3.2.1]octan-3-yl)-8-fluoro-2-((tetrahydro-2H-pyran-4-yl)methoxy)-6-(trifluoromethyl)quinazolin-7-yl)-2-amino-7-fluorobenzo[b]thiophene-3-carbonitrile]
Second: N#Cc1c(N)sc2c(F)ccc(-c3c(C(F)(F)F)cc4c(N5CC6CCC(C5)N6)nc(OCC5CC6(COC6)C5)nc4c3F)c12 [Example 33, 4-(2-((2-oxaspiro[3.3]heptan-6-yl)methoxy)-4-(3,8-diazabicyclo [3.2.1]octan-3-yl)-8-fluoro-6-(trifluoromethyl)quinazolin-7-yl)-2-amino-7-fluoro benzo[b]thiophene-3-carbonitrile]
The IC50 of the first is 2-fold higher: 334 nM for the first, 163 nM for the second.

Going from `Cn1ccnc1N1CC(COc2nc(N3CC4CCC(C3)N4)c3cc(C(F)(F)F)c(-c4ccc(F)c5sc(N)c(C#N)c45)c(F)c3n2)C1` [Example 24, 4-(4-(3,8-diazabicyclo[3.2.1]octan-3-yl)-8-fluoro-2-((1-(1-methyl-1H-imidazol-2-yl)azetidin-3-yl)methoxy)-6-(trifluoromethyl)quinazolin-7-yl)-2-amino-7-fluorobenzo[b]thiophene-3-carbonitrile] to `CC1(O)COCC1COc1nc(N2CC3CCC(C2)N3)c2cc(C(F)(F)F)c(-c3ccc(F)c4sc(N)c(C#N)c34)c(F)c2n1` (stereo not shown) [Example 27, 4-(4-(3,8-diazabicyclo[3.2.1]octan-3-yl)-8-fluoro-2-((4-hydroxy-4-methyltetrahydrofuran-3-yl)methoxy)-6-(trifluoromethyl)quinazolin-7-yl)-2-amino-7-fluorobenzo[b]thiophene-3-carbonitrile], the IC50 rises from 200 nM to 975 nM (4.9-fold).

Compared with `N#Cc1c(N)sc2c(F)ccc(-c3c(C(F)(F)F)cc4c(N5CC6CCC(C5)N6)nc(OCC5(F)CCOC5)nc4c3F)c12` (stereo not shown) [Example 25, 4-(4-(3,8-diazabicyclo[3.2.1]octan-3-yl)-8-fluoro-2-((3-fluorotetra hydrofuran-3-yl)methoxy)-6-(trifluoromethyl)quinazolin-7-yl)-2-amino-7-fluoro benzo[b]thiophene-3-carbonitrile], `N#Cc1c(N)sc2c(F)ccc(-c3c(C(F)(F)F)cc4c(N5CC6CCC(C5)N6)nc(OCC5(C(F)(F)F)CCOC5)nc4c3F)c12` (stereo not shown) [Example 26, 4-(4-(3,8-diazabicyclo[3.2.1]octan-3-yl)-8-fluoro-6-(trifluoromethyl)-2-((3-(trifluoromethyl)tetrahydrofuran-3-yl)methoxy)quinazolin-7-yl)-2-amino-7-fluorobenzo[b]thiophene-3-carbonitrile] is 7.3-fold higher in IC50: 201 nM for the first, 1460 nM for the second.

Compared with `CC12CC(COc3nc(N4CC5CCC(C4)N5)c4cc(C(F)(F)F)c(-c5cc(O)cc6ccccc56)c(F)c4n3)(CO1)C2` [Example 29, 4-(4-(3,8-diazabicyclo[3.2.1]octan-3-yl)-8-fluoro-2-((1-methyl-2-oxabicyclo[2.1.1]hexan-4-yl)methoxy)-6-(trifluoromethyl)quinazolin-7-yl)naphthalen-2-ol], `N#Cc1c(N)sc2c(F)ccc(-c3c(C(F)(F)F)cc4c(N5CC6CCC(C5)N6)nc(OCC56COC(C#N)(C5)C6)nc4c3F)c12` [Example 30, 4-(((7-(2-amino-3-cyano-7-fluorobenzo[b]thiophen-4-yl)-4-(3,8-diazabicyclo[3.2.1]octan-3-yl)-8-fluoro-6-(trifluoromethyl)quinazolin-2-yl)oxy)methyl)-2-oxabicyclo[2.1.1]hexane-1-carbonitrile] is lower in IC50: over 10000 nM for the first, 71 nM for the second. The second is the more potent here.

Going from `CC1(COc2nc(N3CC4CCC(C3)N4)c3cc(C(F)(F)F)c(-c4ccc(F)c5sc(N)c(C#N)c45)c(F)c3n2)CN(C(=O)C2CC2)C1` [Example 31, 4-(4-(3,8-diazabicyclo[3.2.1]octan-3-yl)-2-((1-(cyclopropanecarbonyl)-3-methylazetidin-3-yl)methoxy)-8-fluoro-6-(trifluoromethyl)quinazolin-7-yl)-2-amino-7-fluorobenzo[b]thiophene-3-carbonitrile] to `CCC1(COc2nc(N3CC4CCC(C3)N4)c3cc(C(F)(F)F)c(-c4ccc(F)c5sc(N)c(C#N)c45)c(F)c3n2)COC1` [Example 32, 4-(4-(3,8-diazabicyclo[3.2.1]octan-3-yl)-2-((3-ethyloxetan-3-yl)methoxy)-8-fluoro-6-(trifluoromethyl)quinazolin-7-yl)-2-amino-7-fluorobenzo[b]thiophen-3-carbonitrile], the IC50 falls from 299 nM to 110 nM (2.7-fold).

`CC(F)(F)C1(COc2nc(N3CC4CCC(C3)N4)c3cc(C(F)(F)F)c(-c4ccc(F)c5sc(N)c(C#N)c45)c(F)c3n2)COC1` [Example 34] and `N#CCC1(COc2nc(N3CC4CCC(C3)N4)c3cc(C(F)(F)F)c(-c4ccc(F)c5sc(N)c(C#N)c45)c(F)c3n2)CCOC1` (stereo not shown) [Example 37, 4-(4-(3,8-diazabicyclo[3.2.1]octan-3-yl)-2-((3-(cyanomethyl)tetra hydrofuran-3-yl)methoxy)-8-fluoro-6-(trifluoromethyl)quinazolin-7-yl)-2-amino-7-fluorobenzo[h]thiophene-3-carbonitrile] are within 1.5-fold of each other in IC50: 81 nM for the first, 119 nM for the second.
